Measurements published in patent US10717749B2, “Macrocyclic sulfondiimine compounds” (BAYER PHARMA AKTIENGESELLSCHAFT, priority 2015, dated 2020).
Values after ≈ are worked out from the molar mass of the structure shown. Where two headings read alike, the source gives them in different places. Marks after values point to notes of the source that are not given here.

Assays:
[1] = biological target: T1, human PTEFb (CDK9/Cyclin T1) (Homo sapiens, UniProt P50750); test: Surface Plasmon Resonance PTEFb; format: binding; details: for Target resident time: 1/koff; for koff: read-out: Dissociation rate constant koff
T1 construct: purchased ProQinase, Freiburg, Germany
Text: 8. Surface Plasmon Resonance PTEFb
The ability of the compounds according to the invention to bind human PTEFb may be determined using surface plasmon resonance (SPR). KD values and koff values may be measured using a Biacoret T200 instrument (GE Healthcare, Uppsala, Sweden).
For SPR measurements, recombinant human PTEFb (CDK9/Cyclin T1 recombinant human active protein kinase purchased from ProQinase, Freiburg, Germany) is immobilized using standard amine coupling (Johnsson B et al, Anal Biochem. 1991 Nov. 1; 198(2):268-77). Briefly, carboxymethylated dextran biosensor chips (CM7, GE Healthcare) are activated with N-ethyl-N′-(3-dimethylaminopropyl)-carbodiimide hydrochloride (EDC) and N-hydroxysuccinimide (NHS) according to the supplier's instructions. Human PTEFb is diluted in 1×HBS-EP+(GE Healthcare) into 30 μg/ml and injected on the activated chip surface. Subsequently, a 1:1 solution of 1 M ethanolamine-HCl (GE Healthcare) and 1×HBS-EP is injected to block unreacted groups, resulting in approximately 4000 response units (RU) of immobilized protein. A reference surface is generated by treatment with NHS-EDC and ethanolamine-HCl. Compounds are dissolved in 100% dimethylsulfoxide (DMSO, Sigma-Aldrich, Germany) to a concentration of 10 mM and subsequently diluted in running buffer (1×HBS-EP+pH 7.4 [generated from HBS-EP+Buffer 10×(GE Healthcare): 0.1 M HEPES, 1.5 M NaCl, 30 mM EDTA and 0.5% v/v Surfactant P20], 1% v/v DMSO). For kinetic measurements, four-fold serial dilutions of compound (0.39 nM to 100 nM) are injected over immobilized protein. […] Compound concentrations are injected for 60 s followed by a dissociation time of 1800 s. The resulting sensorgrams are double-referenced against the reference surface as well as against blank injections.
The double-referenced sensorgrams are fit to a simple reversible Langmuir 1:1 reaction mechanism as implemented in the Biacore® T200 evaluation software 2.0 (GE Healthcare). In cases were full compound dissociation has not occurred at the end of the dissociation phase, the Rmax parameter (response at saturation) is fit as local variable. In all other cases, Rmax is fit as global variable.

Caco-2 permeation assay = format: in vitro ADME; details: human, Caco-2, pH 7.2, test compound 2 μM; for efflux ratio at 2 h, 2 μM: read-out: Efflux ratio (Papp B-A/Papp A-B); for Papp A→B at 2 h, 2 μM: read-out: Papp A-B (Mari); for Papp B→A at 2 h, 2 μM: read-out: Papp B-A (Mari)
Method: 5. Caco-2 Permeation Assay:
Caco-2 cells (purchased from DSMZ Braunschweig, Germany) were seeded at a density of 4.5×10^4 cells per well on 24 well insert plates, 0.4 µm pore size, and grown for 15 days in DMEM medium supplemented with 10% fetal bovine serum, 1% GlutaMAX (100×, GIBCO), 100 U/mL penicillin, 100 μg/mL streptomycin (GIBCO) and 1% non essential amino acids (100×). Cells were maintained at 37° C. in a humified 5% CO2 atmosphere. Medium was changed every 2-3 day. Before running the permeation assay, the culture medium was replaced by a FCS-free hepes-carbonate transport buffer (pH 7.2). For assessment of monolayer integrity the transepithelial electrical resistance (TEER) was measured. Test compounds were predissolved in DMSO and added either to the apical or basolateral compartment in final concentration of 2 μM in transport buffer. Before and after 2 h incubation at 37° C. samples were taken from both compartments. Analysis of compound content was done after precipitation with methanol by LC/MS/MS analysis. Permeability (Papp) was calculated in the apical to basolateral (A→B) and basolateral to apical (B→A) directions. The apparent permeability was calculated using following equation: Papp=(Vr/Po)(1/S)(P2/t) Where Vr is the volume of medium in the receiver chamber, Po is the measured peak area or height of the test drug in the donor chamber at t=o, S the surface area of the monolayer, P2 is the measured peak area of the test drug in the acceptor chamber after 2 h of incubation, and t is the incubation time. The efflux ratio basolateral (B) to apical (A) was calculated by dividing the Papp B-A by the Papp A-B. In addition the compound recovery was calculated. 6. Investigation of In Vitro Metabolic Stability in Rat Hepatocytes

[2] = High throughput determination of aqueous drug solubility from DMSO solution (Method 4a); format: physicochemical; details: phosphate buffer, kinetic from dmso stock, pH 6.5, Method 4a
Text: 4. Equilibrium Shake Flask Solubility Assay:
4a) High Throughput Determination of Aqueous Drug Solubility (100 Mmolar in DMSO)
The high throughput screening method to determine aqueous drug solubility is based on: Thomas Onofrey and Greg Kazan, Performance and correlation of a 96-well high throughput screening method to determine aqueous drug solubility, http://wwv.millipore.com/publications.nsf/a73664f9f981 af8c852569b9005b4eee/e565516fb76e7435852 56da30052db77/$FILE/AN1731EN00.pdf
The assay was run in a 96-well plate format. Each well was filled with an individual compound.
All pipetting steps were performed using a robot platform.
100 μl of a 10 mmolar solution of drug in DMSO were concentrated by vacuum centrifugation and resolved in 10 μl DMSO. 990 μl phosphate buffer pH 6.5 were added. The content of DMSO amounts to 1%. The multititer plate was put on a shaker and mixed for 24 hrs at room temperature. 150 μl of the suspension were transferred to a filtration plate. After filtration using a vacuum manifold the filtrate was diluted 1:400 and 1:8000. A second microtiter plate with 20 μl of a 10 mM solution of drug in DMSO served for calibration. Two concentrations (0.005 μM and 0.0025 μM) were prepared by dilution in DMSO/water 1:1 and used for calibration. Filtrate and calibration plates were quantified by HPLC-MS/MS.
The areas of sample- and calibration injections were determined by using mass spectromety software (AB SCIEX: Discovery Quant 2.1.3. and Analyst 1.6.1). The calculation of the solubility value (in mg/l) was executed by an inhouse developed Excel macro.

T1 sequence (P50750 whole entry): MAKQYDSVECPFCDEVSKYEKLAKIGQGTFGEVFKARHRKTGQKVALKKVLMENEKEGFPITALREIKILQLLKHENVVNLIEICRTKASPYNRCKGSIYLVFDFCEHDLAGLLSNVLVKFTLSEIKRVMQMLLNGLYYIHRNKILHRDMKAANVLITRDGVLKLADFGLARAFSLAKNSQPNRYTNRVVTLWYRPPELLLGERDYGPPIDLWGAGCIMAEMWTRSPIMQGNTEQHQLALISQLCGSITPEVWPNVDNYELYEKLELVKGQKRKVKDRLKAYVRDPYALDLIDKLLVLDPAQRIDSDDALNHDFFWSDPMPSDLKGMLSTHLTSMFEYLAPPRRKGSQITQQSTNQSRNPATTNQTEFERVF
T1 sequence (O60563 whole entry partner): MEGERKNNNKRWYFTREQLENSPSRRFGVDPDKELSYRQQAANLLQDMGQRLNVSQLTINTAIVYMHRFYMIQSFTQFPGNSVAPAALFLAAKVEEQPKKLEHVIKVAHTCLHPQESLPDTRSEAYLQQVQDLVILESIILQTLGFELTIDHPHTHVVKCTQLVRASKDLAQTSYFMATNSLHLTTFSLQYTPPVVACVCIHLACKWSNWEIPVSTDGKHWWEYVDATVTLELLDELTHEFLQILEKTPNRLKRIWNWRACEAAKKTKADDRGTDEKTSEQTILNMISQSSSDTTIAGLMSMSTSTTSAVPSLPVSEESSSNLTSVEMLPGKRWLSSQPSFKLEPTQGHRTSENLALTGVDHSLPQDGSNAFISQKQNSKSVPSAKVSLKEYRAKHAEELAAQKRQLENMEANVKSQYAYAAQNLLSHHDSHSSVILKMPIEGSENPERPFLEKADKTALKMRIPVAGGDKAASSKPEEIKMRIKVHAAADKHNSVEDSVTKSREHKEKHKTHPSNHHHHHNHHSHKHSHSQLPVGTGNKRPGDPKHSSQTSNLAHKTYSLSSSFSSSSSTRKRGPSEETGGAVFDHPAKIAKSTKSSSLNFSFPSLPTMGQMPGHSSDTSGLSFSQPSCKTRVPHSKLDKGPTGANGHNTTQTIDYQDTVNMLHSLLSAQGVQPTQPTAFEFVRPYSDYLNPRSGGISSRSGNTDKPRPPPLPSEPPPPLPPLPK

Target resident time ([1]; 25° C., Parameters B)	koff ([1]; 25° C., Parameters B) [s⁻¹]	Target resident time ([1]; 25° C., Parameters C) [min]	koff ([1]; 25° C., Parameters C) [s⁻¹]	efflux ratio at 2 h, 2 μM (Caco-2 permeation assay)	Papp A→B at 2 h, 2 μM (Caco-2 permeation assay) [×10⁻⁶ cm/s]	Papp B→A at 2 h, 2 μM (Caco-2 permeation assay) [×10⁻⁶ cm/s]	solubility thermodynamic at 24 h [2] [µg/mL]	Compound	other results
> 666 min	< 2.5e-05	> 333	< 5e-05	23.2	0.99	22.9	–	CS(=N)(Cc1cc2nc(c1)OCCCOc1cc(F)ccc1-c1cc(ncc1F)N2)=NCCCO (racemic) [Example 2, (rac)-3-(2-{[15,19-difluoro-3,4-dihydro-2H,11H-10,6-(azeno)-12,16-(metheno)-1,5,11,13-benzodioxadiazacyclooctadecin-8-yl]methyl}-2-methyl-2λ^6-diazathia-1,2-dien-1-yl)propan-1-ol]	–
> 666 min	< 2.5e-05	> 333	< 5e-05	–	–	–	–	CS(=N)(Cc1cc2nc(c1)OCCCOc1cc(F)ccc1-c1cc(ncc1F)N2)=NC#N (racemic) [Example 3, (rac)-[{[15,19-difluoro-3,4-dihydro-2H,11H-10,6-(azeno)-12,16-(metheno)-1,5,11,13-benzodioxadiazacyclooctadecin-8-yl]methyl}(imino)methyl-λ^6-sulfanylidene]cyanamide]	–
–	4.96e-05	–	–	–	–	–	–	CN=S(C)(=N)Cc1cc2nc(c1)OCCCOc1cc(F)ccc1-c1cc(ncc1F)N2 (racemic) [Example 4, (rac)-8-[(N,S-dimethylsulfonodiimidoyl)methyl]-15,19-difluoro-3,4-dihydro-2H,11H-10,6-(azeno)-12,16-(metheno)-1,5,11,13-benzodioxadiazacyclooctadecine]	Target resident time ([1]; 25° C., Parameters D): 70 min; koff ([1]; 25° C., Parameters D): 0.000237 s⁻¹
–	–	–	–	–	–	–	70 (≈ 140 µM)	CS(=N)(Cc1cc2cc(c1)OCCCCOc1cc(F)ccc1-c1nc(ncc1F)N2)=NC1CC1 (racemic) [Example 9, (rac)-9-[(N-cyclopropyl-S-methylsulfonodiimidoyl)methyl]-16,20-difluoro-2,3,4,5-tetrahydro-12H-13,17-(azeno)-11,7-(metheno)-1,6,12,14-benzodioxadiazacyclononadecine]	Target resident time ([1]; 25° C., Parameters F): 79* min; koff ([1]; 25° C., Parameters F): 0.000211 s⁻¹
–	–	–	–	–	–	–	–	CN=S(C)(=N)Cc1cc2cc(c1)OCCCCOc1cc(F)ccc1-c1nc(ncc1F)N2 (racemic) [Example 10, (rac)-9-[(N,S-dimethylsulfonodiimidoyl)methyl]-16,20-difluoro-2,3,4,5-tetrahydro-12H-13,17-(azeno)-11,7-(metheno)-1,6,12,14-benzodioxadiazacyclononadecine]	Target resident time ([1]; 37° C., Parameters E): 20* min; koff ([1]; 37° C., Parameters E): 0.000833 s⁻¹
> 666 min	< 2.5e-05	–	–	1.4	6.24	8.92	–	CS(=N)(=N)Cc1cc2nc(c1)OCCCOc1cc(F)ccc1-c1cc(ncc1F)N2 [Example 1, 15,19-difluoro-8-[(S-methylsulfonodiimidoyl)methyl]-3,4-dihydro-2H,11H-10,6-(azeno)-12,16-(metheno)-1,5,11,13-benzodioxadiazacyclooctadecine]	Target resident time ([1]; 25° C., Parameters A): > 333 min; koff ([1]; 25° C., Parameters A): < 5e-05 s⁻¹
–	–	49	0.000338	5	4.82	24.1	78 (≈ 170 µM)	CS(=N)(=N)Cc1cc2cc(c1)OCCCCOc1cc(F)ccc1-c1nc(ncc1F)N2 [Example 5, 16,20-difluoro-9-[(S-methylsulfonodiimidoyl)methyl]-2,3,4,5-tetrahydro-12H-13,17-(azeno)-11,7-(metheno)-1,6,12,14-benzodioxadiazacyclononadecine]	Target resident time ([1]; 25° C., Parameters D): 40 min; koff ([1]; 25° C., Parameters D): 0.000412 s⁻¹; Target resident time ([1]; 37° C., Parameters E): 21* min; koff ([1]; 37° C., Parameters E): 0.000809 s⁻¹
9* min	0.00188	–	–	4.8	4.64	22.3	14 (≈ 29.3 µM)	CS(=N)(=N)Cc1cc2cc(c1)OCCCCOc1c(ccc(F)c1F)-c1nc(ncc1F)N2 [Example 6, 16,20,21-trifluoro-9-[(S-methylsulfonodiimidoyl)methyl]-2,3,4,5-tetrahydro-12H-13,17-(azeno)-11,7-(metheno)-1,6,12,14-benzodioxadiazacyclononadecine]	–
–	–	–	–	–	–	–	–	CS(=N)(=N)Cc1cc2cc(c1)OCCCCOc1c(F)cccc1-c1nc(ncc1F)N2 [Example 7, 16,21-difluoro-9-[(S-methylsulfonodiimidoyl)methyl]-2,3,4,5-tetrahydro-12H-13,17-(azeno)-11,7-(metheno)-1,6,12,14-benzodioxadiazacyclononadecine]	Target resident time ([1]; 25° C., Parameters G): 11* min; koff ([1]; 25° C., Parameters G): 0.00154 s⁻¹
–	–	–	–	–	–	–	–	CS(=N)(=N)Cc1cc2nc(c1C#N)OCCCOc1cc(F)ccc1-c1cc(ncc1F)N2 [Example 8, 15,19-difluoro-8-[(S-methylsulfonodiimidoyl)methyl]-3,4-dihydro-2H,11H-10,6-(azeno)-12,16-(metheno)-1,5,11,13-benzodioxadiazacyclooctadecine-7-carbonitrile]	Target resident time ([1]; 25° C., Parameters G): 51* min; koff ([1]; 25° C., Parameters G): 0.000326 s⁻¹
